The data set in a line: Stability tests of nicorandil tablets in alu/alu blister with desiccant system. Particulars: stored in combination with molecular sieve instead of silica gel desiccant, 6 months. It is filed as physicochemical. How it is done: Two batches of Nicorandil tablets, 10 mg (batch 043/07) and 20 mg (batch 044/07) respectively, were prepared and packed according to the invention, in alu/alu blister together with a desiccant system.
Silica gel and molecular sieves were compared as desiccant systems and among molecular sieves, systems with different capacity of water absorption were considered.
043/07A: silica gel system
043/07B: 1 lozenge of desiccant plastic composition (Molecular Sieve 4A as provided by CSP technologies), containing molecular sieve 4 Å, a base polymer of polypropylene and an elastomer (moisture absorbed in mg: about 64)
043/07C: 5 lozenges of desiccant plastic composition (Molecular Sieve 4A as provided by CSP technologies), containing molecular sieve 4 Å, a base polymer of polypropylene and an elastomer (moisture absorbed in mg: about 320)
The blisters were placed on stability at the following conditions for 6 months:
25±2° C./60±5% relative humidity (RH)
Nicorandil is particularly sensitive to humidity. Two impurities (named rrt0.14 and rrt0.25) are generated when the product is exposed to moisture and therefore were monitored during stability.

Regarding `O=C(NCCO[N+](=O)[O-])c1cccnc1` [Nicorandil], the stability of nicorandil entry is given as “more stable”. Besides, the stability of nicorandil entry (listed as nicorandil) was “improved stability”.
